Experimental data as given in PubChem BioAssay (NCI).
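Five concentrations, 48 hours, 96-well plates. TGI is the concentration that stops growth completely.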

What was measured:
Test in all cases: NCI tumour cell line growth inhibition, 48 h
786-0 renal = test system: 786-0 renal
UACC-257 melanoma = test system: UACC-257 melanoma
UACC-62 melanoma = test system: UACC-62 melanoma
MDA-N = test system: MDA-N
NCI-H460 lung = test system: NCI-H460 lung
U251 CNS = test system: U251 CNS
IGROV1 ovarian = test system: IGROV1 ovarian
MDA-MB-435 = test system: MDA-MB-435
DU-145 prostate = test system: DU-145 prostate
HT29 colon = test system: HT29 colon
EKVX NSCLC = test system: EKVX NSCLC
SF-268 CNS = test system: SF-268 CNS
HCT-116 colon = test system: HCT-116 colon
CCRF-CEM leukemia = test system: CCRF-CEM leukemia
MDA-MB-231 breast = test system: MDA-MB-231 breast
NCI/ADR-RES ovarian = test system: NCI/ADR-RES ovarian
HS 578T breast = test system: HS 578T breast
OVCAR-4 ovarian = test system: OVCAR-4 ovarian
NCI-H522 lung = test system: NCI-H522 lung
BT-549 breast = test system: BT-549 breast
HCT-15 colon = test system: HCT-15 colon
M14 melanoma = test system: M14 melanoma
OVCAR-8 ovarian = test system: OVCAR-8 ovarian
MALME-3M melanoma = test system: MALME-3M melanoma
UO-31 renal = test system: UO-31 renal
OVCAR-3 ovarian = test system: OVCAR-3 ovarian
T-47D breast = test system: T-47D breast
SR leukemia = test system: SR leukemia
SK-MEL-2 melanoma = test system: SK-MEL-2 melanoma
SK-OV-3 ovarian = test system: SK-OV-3 ovarian
SF-295 CNS = test system: SF-295 CNS
SN12C renal = test system: SN12C renal
SK-MEL-28 melanoma = test system: SK-MEL-28 melanoma
SNB-19 CNS = test system: SNB-19 CNS
RXF 393 renal = test system: RXF 393 renal
KM12 colon = test system: KM12 colon
K-562 leukemia = test system: K-562 leukemia
NCI-H226 lung = test system: NCI-H226 lung
SNB-75 CNS = test system: SNB-75 CNS
A549 NSCLC = test system: A549 NSCLC
HOP-62 NSCLC = test system: HOP-62 NSCLC
SF-539 CNS = test system: SF-539 CNS
PC-3 prostate = test system: PC-3 prostate
HOP-92 NSCLC = test system: HOP-92 NSCLC
NCI-H23 lung = test system: NCI-H23 lung
HL-60(TB) leukemia = test system: HL-60(TB) leukemia
RPMI-8226 leukemia = test system: RPMI-8226 leukemia
TK-10 renal = test system: TK-10 renal
HCC-2998 colon = test system: HCC-2998 colon
CAKI-1 renal = test system: CAKI-1 renal
MCF7 breast = test system: MCF7 breast
A498 renal = test system: A498 renal
SK-MEL-5 melanoma = test system: SK-MEL-5 melanoma
LOX IMVI melanoma = test system: LOX IMVI melanoma
SW-620 colon = test system: SW-620 colon
COLO 205 colon = test system: COLO 205 colon
ACHN renal = test system: ACHN renal
OVCAR-5 ovarian = test system: OVCAR-5 ovarian
MOLT-4 leukemia = test system: MOLT-4 leukemia

With `CCCC(=O)NC(Nc1ccc(F)cc1)(C(F)(F)F)C(F)(F)F` the TGI (786-0 renal) was over 100 µM, the TGI (UACC-257 melanoma) was over 100 µM and the TGI (UACC-62 melanoma) was over 100 µM. The TGI (MDA-N) was over 100 µM, the TGI (NCI-H460 lung) was over 100 µM and the TGI (U251 CNS) was over 100 µM. For the same compound, the TGI (IGROV1 ovarian) was over 100 µM, the TGI (MDA-MB-435) was over 100 µM and the TGI (DU-145 prostate) was over 100 µM. For the same compound, the TGI (HT29 colon) was over 100 µM, the TGI (EKVX NSCLC) was over 100 µM and the TGI (SF-268 CNS) was over 100 µM. The TGI (HCT-116 colon) was over 100 µM, the TGI (CCRF-CEM leukemia) was over 26.7 µM and the TGI (MDA-MB-231 breast) was over 100 µM. For the same compound, the TGI (NCI/ADR-RES ovarian) was over 100 µM, the TGI (HS 578T breast) was over 100 µM and the TGI (OVCAR-4 ovarian) was over 74.2 µM. For the same compound, the TGI (NCI-H522 lung) was over 100 µM, the TGI (BT-549 breast) was over 100 µM and the TGI (HCT-15 colon) was over 100 µM. For the same compound, the TGI (M14 melanoma) was over 100 µM, the TGI (OVCAR-8 ovarian) was over 100 µM and the TGI (MALME-3M melanoma) was over 100 µM. For the same compound, the TGI (UO-31 renal) was over 100 µM, the TGI (OVCAR-3 ovarian) was over 100 µM and the TGI (T-47D breast) was over 100 µM. It also gave a TGI (SR leukemia) of over 100 µM, a TGI (SK-MEL-2 melanoma) of 67 µM and a TGI (SK-OV-3 ovarian) of over 100 µM. For the same compound, the TGI (SF-295 CNS) was over 100 µM, the TGI (SN12C renal) was over 100 µM and the TGI (SK-MEL-28 melanoma) was over 100 µM. For the same compound, the TGI (SNB-19 CNS) was over 100 µM, the TGI (RXF 393 renal) was over 100 µM and the TGI (KM12 colon) was over 100 µM. The TGI (K-562 leukemia) was over 100 µM, the TGI (NCI-H226 lung) was over 100 µM and the TGI (SNB-75 CNS) was over 100 µM. It also gave a TGI (A549 NSCLC) of over 100 µM, a TGI (HOP-62 NSCLC) of over 100 µM and a TGI (SF-539 CNS) of over 100 µM. It also gave a TGI (PC-3 prostate) of over 100 µM, a TGI (HOP-92 NSCLC) of over 100 µM and a TGI (NCI-H23 lung) of over 100 µM. It also gave a TGI (HL-60(TB) leukemia) of over 100 µM, a TGI (RPMI-8226 leukemia) of over 100 µM and a TGI (TK-10 renal) of over 100 µM. It also gave a TGI (HCC-2998 colon) of over 100 µM, a TGI (CAKI-1 renal) of over 100 µM and a TGI (MCF7 breast) of over 100 µM. For the same compound, the TGI (A498 renal) was over 100 µM, the TGI (SK-MEL-5 melanoma) was over 100 µM and the TGI (LOX IMVI melanoma) was over 100 µM. For the same compound, the TGI (SW-620 colon) was over 100 µM, the TGI (COLO 205 colon) was over 92.8 µM and the TGI (ACHN renal) was over 100 µM. It also gave a TGI (OVCAR-5 ovarian) of over 100 µM and a TGI (MOLT-4 leukemia) of over 100 µM.
Compound `O=[N+]([O-])c1ccc(O)c(/C=N/c2nc(-c3ccccc3)cs2)c1` has a TGI (786-0 renal) of over 100 µM, a TGI (UACC-257 melanoma) of over 100 µM and a TGI (UACC-62 melanoma) of 30.8 µM. It also gave a TGI (MDA-N) of over 83.6 µM, a TGI (NCI-H460 lung) of over 86.7 µM and a TGI (U251 CNS) of over 100 µM. For the same compound, the TGI (IGROV1 ovarian) was 74.3 µM, the TGI (MDA-MB-435) was over 100 µM and the TGI (DU-145 prostate) was over 87.1 µM. For the same compound, the TGI (HT29 colon) was over 100 µM, the TGI (EKVX NSCLC) was over 100 µM and the TGI (SF-268 CNS) was 78 µM. The TGI (HCT-116 colon) was 80.9 µM, the TGI (CCRF-CEM leukemia) was over 100 µM and the TGI (MDA-MB-231 breast) was over 100 µM. It also gave a TGI (NCI/ADR-RES ovarian) of over 91.4 µM, a TGI (HS 578T breast) of 74.6 µM and a TGI (OVCAR-4 ovarian) of over 100 µM. For the same compound, the TGI (NCI-H522 lung) was 38.1 µM, the TGI (BT-549 breast) was 46.4 µM and the TGI (HCT-15 colon) was over 89.7 µM. The TGI (M14 melanoma) was over 92.1 µM, the TGI (OVCAR-8 ovarian) was 68.4 µM and the TGI (MALME-3M melanoma) was 74.6 µM. It also gave a TGI (UO-31 renal) of over 86.4 µM, a TGI (OVCAR-3 ovarian) of over 100 µM and a TGI (T-47D breast) of 91.6 µM. For the same compound, the TGI (SR leukemia) was 21.7 µM, the TGI (SK-MEL-2 melanoma) was 70.5 µM and the TGI (SK-OV-3 ovarian) was 89.5 µM. It also gave a TGI (SF-295 CNS) of over 95.9 µM, a TGI (SN12C renal) of over 100 µM and a TGI (SK-MEL-28 melanoma) of over 100 µM. The TGI (SNB-19 CNS) was over 100 µM, the TGI (RXF 393 renal) was 45.1 µM and the TGI (KM12 colon) was over 100 µM. For the same compound, the TGI (K-562 leukemia) was 41.9 µM, the TGI (NCI-H226 lung) was 85.3 µM and the TGI (SNB-75 CNS) was 75.5 µM. It also gave a TGI (A549 NSCLC) of over 100 µM, a TGI (HOP-62 NSCLC) of over 90.5 µM and a TGI (PC-3 prostate) of over 100 µM. For the same compound, the TGI (HOP-92 NSCLC) was 75.2 µM, the TGI (NCI-H23 lung) was 49.6 µM and the TGI (HL-60(TB) leukemia) was over 100 µM. For the same compound, the TGI (RPMI-8226 leukemia) was 30.9 µM, the TGI (TK-10 renal) was over 75.4 µM and the TGI (HCC-2998 colon) was over 61.4 µM. For the same compound, the TGI (CAKI-1 renal) was over 100 µM, the TGI (MCF7 breast) was over 100 µM and the TGI (A498 renal) was over 100 µM. For the same compound, the TGI (SK-MEL-5 melanoma) was 34.4 µM, the TGI (LOX IMVI melanoma) was 38.7 µM and the TGI (SW-620 colon) was over 100 µM. It also gave a TGI (COLO 205 colon) of 56.7 µM, a TGI (ACHN renal) of over 100 µM and a TGI (OVCAR-5 ovarian) of over 100 µM. The TGI (MOLT-4 leukemia) was 43.3 µM.
Work on `O=C1CS(=O)(=O)C(c2cccc(Oc3ccccc3)c2)N1c1ccccc1` (centres undefined) yielded a TGI (786-0 renal) of 37.8 µM, a TGI (UACC-257 melanoma) of 46 µM and a TGI (UACC-62 melanoma) of 27 µM. It also gave a TGI (MDA-N) of 44.2 µM, a TGI (NCI-H460 lung) of 38.4 µM and a TGI (U251 CNS) of 33.3 µM. The TGI (MDA-MB-435) was 68.2 µM, the TGI (DU-145 prostate) was over 100 µM and the TGI (HT29 colon) was over 100 µM. It also gave a TGI (EKVX NSCLC) of 54.2 µM, a TGI (SF-268 CNS) of 75.8 µM and a TGI (HCT-116 colon) of 30.8 µM. It also gave a TGI (CCRF-CEM leukemia) of over 100 µM, a TGI (MDA-MB-231 breast) of 62.6 µM and a TGI (NCI/ADR-RES ovarian) of 83 µM. For the same compound, the TGI (HS 578T breast) was 69.9 µM, the TGI (OVCAR-4 ovarian) was over 100 µM and the TGI (NCI-H522 lung) was 47.9 µM. For the same compound, the TGI (BT-549 breast) was 49.1 µM, the TGI (HCT-15 colon) was 66 µM and the TGI (M14 melanoma) was 38.7 µM. It also gave a TGI (OVCAR-8 ovarian) of over 100 µM, a TGI (MALME-3M melanoma) of 42.6 µM and a TGI (UO-31 renal) of 80.4 µM. For the same compound, the TGI (OVCAR-3 ovarian) was 55.1 µM, the TGI (T-47D breast) was over 100 µM and the TGI (SR leukemia) was 57 µM. It also gave a TGI (SK-MEL-2 melanoma) of 31.5 µM, a TGI (SK-OV-3 ovarian) of over 100 µM and a TGI (SF-295 CNS) of over 100 µM. The TGI (SN12C renal) was 39.7 µM, the TGI (SK-MEL-28 melanoma) was 85.4 µM and the TGI (SNB-19 CNS) was over 100 µM. For the same compound, the TGI (RXF 393 renal) was 38.7 µM, the TGI (KM12 colon) was over 100 µM and the TGI (K-562 leukemia) was 60.1 µM. It also gave a TGI (NCI-H226 lung) of 45.6 µM, a TGI (SNB-75 CNS) of over 100 µM and a TGI (A549 NSCLC) of over 100 µM. For the same compound, the TGI (HOP-62 NSCLC) was over 100 µM, the TGI (SF-539 CNS) was 39.6 µM and the TGI (PC-3 prostate) was 66.8 µM. It also gave a TGI (HOP-92 NSCLC) of 32.8 µM, a TGI (NCI-H23 lung) of 94.6 µM and a TGI (HL-60(TB) leukemia) of over 100 µM. It also gave a TGI (TK-10 renal) of 60 µM, a TGI (HCC-2998 colon) of 35 µM and a TGI (CAKI-1 renal) of 58.3 µM. It also gave a TGI (MCF7 breast) of 33.3 µM, a TGI (A498 renal) of 41.8 µM and a TGI (SK-MEL-5 melanoma) of 29.3 µM. For the same compound, the TGI (LOX IMVI melanoma) was 32.7 µM, the TGI (SW-620 colon) was over 100 µM and the TGI (COLO 205 colon) was 37.2 µM. The TGI (ACHN renal) was 64.8 µM, the TGI (OVCAR-5 ovarian) was over 100 µM and the TGI (MOLT-4 leukemia) was 65.7 µM.
